According to patent publication US20070270488A1, “Treatment and Assays” (The Queen's University of Belfast, priority 2004, published 2007):
Where two headings read alike, the source gives them in different places.

Columns and labels:
[1] = tested on: p53^+/+ oxaliplatin-resistant HCT116 cells; assay: MTT cytotoxicity assay, p53^+/+ oxaliplatin-resistant HCT116 cells; type: cell-based, human; conditions: for IC50: p53^+/+ oxaliplatin-resistant, MTT, 72 h, read-out: IC50(72 h)
Experimental: (§1) Tissue culture. HCT116 p53^+/+ and p53^−/− isogenic human colon cancer cells were kindly provided by Professor Bert Vogelstein (John Hopkins University, Baltimore, Md.). Drug-resistant HCT116 sub-lines were developed in the inventors' laboratory by repeated exposure to stepwise increasing concentrations of 5-FU, CPT-11 or oxaliplatin over a period of approximately ten months. Parental and drug-resistant HCT116 cell lines were grown in McCoy's 5A medium supplemented with 10% dialysed foetal calf serum (FCS), 50 μg/ml penicillin-streptomycin, 2 mM L-glutamine and 1 mM sodium pyruvate (all from GIBCO Invitrogen Corporation, Paisley, Scotland) and maintained at 37° C. in a humidified atmosphere containing 5% CO2. 5-FU-resistant p53^+/+ and p53^−/− HCT116 cells were maintained in the presence of 2 μM and 4 μM 5-FU respectively. CPT-11-resistant p53^+/+ and p53^−/− HCT116 cells were maintained in the presence of 1 μM and 3 μM CPT-11 respectively. […] Prior to each experiment, resistant sub-lines were cultured in the absence of drug for 48 hours.
(§2) Cytotoxicity studies. Cells were seeded at 2000 cells per well in 96-well microtiter plates. After 48 hours, cells were treated with a range of concentrations of 5-FU, CPT-11 or oxaliplatin.
(§3) After 72 hours, 25 μl of MTT dye (5 mg/ml) was added to each well and the plates were incubated at 37° C. for 3 hours. Dark-blue formazan crystals formed by live cells were dissolved in 200 μl of DMSO and absorbance in individual wells was determined at 570 nm using an Emax precision microplate reader (Molecular Devices, Sunnyvale, Calif.).

[2] = tested on: p53^+/+ HCT116 parental cells; assay: Flow cytometry cell cycle/apoptosis, p53^+/+ HCT116 parental cells; type: cell-based, human; conditions: 72 hours
[3] = tested on: p53^+/+ 5-FU-resistant HCT116 cells; assay: MTT cytotoxicity assay, p53^+/+ 5-FU-resistant HCT116 cells; type: cell-based, human; conditions: for IC50: p53^+/+ 5-FU-resistant, MTT, 72 h, read-out: IC50(72 h); for increase in IC50 (72 hr) compared to parental cells: p53^+/+ 5-FU-resistant vs p53^+/+ parental
[4] = tested on: p53^−/− CPT-11-resistant HCT116 cells; assay: MTT cytotoxicity assay, p53^−/− CPT-11-resistant HCT116 cells; type: cell-based, human; conditions: for IC50: p53^−/− CPT-11-resistant, MTT, 72 h, read-out: IC50(72 h); for increase in IC50 (72 hr) compared to parental cells: p53^−/− CPT-11-resistant vs p53^−/− parental
[5] = tested on: p53^+/+ CPT-11-resistant HCT116 cells; assay: MTT cytotoxicity assay, p53^+/+ CPT-11-resistant HCT116 cells; type: cell-based, human; conditions: for IC50: p53^+/+ CPT-11-resistant, MTT, 72 h, read-out: IC50(72 h)
[6] = tested on: p53^−/− HCT116 parental cells; assay: Flow cytometry cell cycle/apoptosis, p53^−/− HCT116 parental cells; type: cell-based, human; conditions: 72 hours; for drug-induced apoptosis in p53^−/− compared to p53^+/+ parental cells: range of concentrations
[7] = tested on: p53^−/− 5-FU-resistant HCT116 cells; assay: MTT cytotoxicity assay, p53^−/− 5-FU-resistant HCT116 cells; type: cell-based, human; conditions: for IC50: p53^−/− 5-FU-resistant, MTT, 72 h, read-out: IC50(72 h)
[8] = tested on: p53^−/− oxaliplatin-resistant HCT116 cells; assay: MTT cytotoxicity assay, p53^−/− oxaliplatin-resistant HCT116 cells; type: cell-based, human; conditions: for IC50: p53^−/− oxaliplatin-resistant, MTT, 72 h, read-out: IC50(72 h)
Experimental: as §1, §2, §3

[9] = tested on: p53^−/− oxaliplatin-resistant HCT116 cells; assay: Flow cytometry cell cycle/apoptosis, p53^−/− oxaliplatin-resistant cells; type: cell-based, human; conditions: same concentrations as parental (1 μM, 5 μM)
Experimental: as §1
(§4) Flow cytometry. Cells were seeded at 5×10^4 cells per well in 6-well plates. After 48 hours, cells were treated with a range of concentrations of 5-FU, CPT-11 or oxaliplatin. Seventy-two hours post-treatment, cells were harvested in 5 ml of 1× PBS/0.5 mM EDTA and pelleted by centrifugation at 1000 rpm/4° C. for 5 minutes. […]

[10] = tested on: p53^+/+ HCT116 cells; assay: PARP cleavage immunoblotting, p53^+/+ HCT116 cells; type: cell-based, human; conditions: 48 hours, Western blot
[11] = tested on: p53^−/− HCT116 cells; assay: PARP cleavage immunoblotting, p53^−/− HCT116 cells; type: cell-based, human; conditions: 48 hours, Western blot
[12] = tested on: p53^+/+ oxaliplatin-resistant HCT116 cells; assay: Flow cytometry cell cycle/apoptosis, p53^+/+ oxaliplatin-resistant cells; type: cell-based, human; conditions: 72 hours
Experimental: as §1
(§5) Flow cytometry. Cells were seeded at 5×10^4 cells per well in 6-well plates. After 48 hours, cells were treated with a range of concentrations of 5-FU, CPT-11 or oxaliplatin. Seventy-two hours post-treatment, cells were harvested in 5 ml of 1× PBS/0.5 mM EDTA and pelleted by centrifugation at 1000 rpm/4° C. for 5 minutes. Cell pellets were washed once with 1× PBS/1% FCS, fixed in 70% ethanol and stained with propidium iodide. Analyses were performed on a Beckman Coulter Epics XL flow cytometer (Miami, Fla.).

[13] = tested on: HCT116 p53^+/+ parental cells; assay: MTT cytotoxicity assay, HCT116 p53^+/+ parental cells; type: cell-based, human; conditions: 72 h, read-out: IC50(72 h)
Experimental: as §1, §2, §3

[14] = tested on: HCT116 p53^−/− parental cells; assay: MTT cytotoxicity assay, HCT116 p53^−/− parental cells; type: cell-based, human; conditions: for IC50: HCT116 p53^−/− parental, MTT, 72 h, read-out: IC50(72 h)
Experimental: as §1, §2, §3

[15] = tested on: p53^+/+ 5-FU-resistant HCT116 cells; assay: Flow cytometry cell cycle/apoptosis, p53^+/+ 5-FU-resistant cells; type: cell-based, human
[16] = tested on: p53^+/+ CPT-11-resistant HCT116 cells; assay: Flow cytometry cell cycle/apoptosis, p53^+/+ CPT-11-resistant cells; type: cell-based, human; conditions: 72 hours
Experimental: as §1, §5

[17] = tested on: p53^−/− CPT-11-resistant HCT116 cells; assay: Flow cytometry cell cycle/apoptosis, p53^−/− CPT-11-resistant cells; type: cell-based, human
[18] = tested on: resected stage III CRC; conditions: adjuvant 5-FU-based chemotherapy, patients with resected stage III CRC; cited from earlier work
[19] = tested on: p53^−/− 5-FU-resistant HCT116 cells; assay: Flow cytometry cell cycle/apoptosis, p53^−/− 5-FU-resistant cells; type: cell-based, human; conditions: 1 μM, 5 μM and 10 μM, relative to untreated control cells
Experimental: as §1, §4

[20] = tested on: advanced CRC; conditions: monotherapy; cited from earlier work
[21] = parental HCT116 p53^−/− vs p53^+/+

O=C1[O][Pt]2([NH][C@@H]3CCCC[C@H]3[NH]2)[O]C1=O [oxaliplatin]
increase in IC50 (72 hr) compared to parental cells ([1]; p53^+/+ oxaliplatin-resistant vs p53^+/+ parental): 31.0 fold | IC50 [1]: 9.4 µM | cell cycle distribution ([2]; 0.5 μM): majority of cells had arrested in G2/M-phase | proportion of apoptotic cells ([2]; 1 μM and 5 μM, ~2% in control samples): 40-50% | IC50 [3]: 0.3 µM | IC50 [4]: 1.7 µM | IC50 [5]: 0.3 µM | cell cycle distribution ([6]; 1 μM): S-phase block and a moderate increase in the polyploid fraction | cell cycle distribution ([6]; 5 μM): majority of cells were arrested in G2/M phase | drug-induced apoptosis in p53^−/− compared to p53^+/+ parental cells [6]: significantly attenuated | IC50 [7]: 1.9 µM | increase in IC50 (72 hr) compared to parental cells ([8]; p53^−/− oxaliplatin-resistant vs p53^−/− parental): 10.5 fold | IC50 [8]: 17.9 µM | cell cycle distribution [9]: no change in cell cycle distribution | PARP cleavage ([10]; 1 μM): observed | PARP cleavage ([11]; 1 μM): not | cell cycle distribution ([12]; 0.5 μM and 1 μM): unaffected | cell cycle distribution ([12]; 5 μM): majority of cells were arrested in S-phase | induction of apoptosis compared to parental cells [12]: dramatically attenuated | IC50 ([13]; HCT116 p53^+/+ parental): 0.3 µM | IC50 [14]: 1.7 µM | increase in IC50 (72 h) dose in p53^−/− compared to p53^+/+ cells [14, 21]: 5.7 fold

CCc1c2c(nc3ccc(OC(=O)N4CCC(N5CCCCC5)CC4)cc13)-c1cc3c(c(=O)n1C2)COC(=O)[C@]3(O)CC [CPT-11, irinotecan]
IC50 ([1]; Homo sapiens, HCT-116): 2.9 µM | cell cycle distribution ([2]; 0.5 μM): accumulation of cells in S-phase | cell cycle distribution ([2]; 1 μM): majority of cells were now arrested in G2/M | cells in the sub-G0/G1 apoptotic phase ([2]; 5 μM): ~40% | IC50 ([3]; Homo sapiens, HCT-116): 7.2 µM | increase in IC50 (72 hr) compared to parental cells [3]: ~2 fold | cross-resistance examined using flow cytometry ([15]; p53^+/+ 5-FU-resistant cell line, data not shown): not apparent | IC50 ([4]; Homo sapiens, HCT-116): 200 µM | increase in IC50 (72 hr) compared to parental cells [4]: 65.0 fold | IC50 ([5]; Homo sapiens, HCT-116): 30.3 µM | increase in IC50 (72 hr) compared to parental cells ([5]; p53^+/+ CPT-11-resistant vs p53^+/+ parental): 10.0 fold | cell cycle distribution ([6]; 0.5 μM and 1 μM): dramatic G2/M cell cycle arrest | apoptotic cells ([6]; 5 μM, ~2% in control samples): ~35% | drug-induced apoptosis in p53^−/− compared to p53^+/+ parental cells [6]: almost identical levels of apoptosis | cell cycle distribution ([16]; 0.5 μM and 1 μM): almost completely insensitive | cell cycle distribution ([16]; 5 μM): significant G2/M arrest and accumulation of polyploid cells | degree of apoptosis ([16]; 5 μM): ~14% | cell cycle distribution ([17]; 0.5 μM and 1 μM): no G2/M arrest was observed | apoptosis ([17]; 5 μM, 72 hours): no apoptosis was observed | IC50 ([7]; Homo sapiens, HCT-116): 2.8 µM | IC50 ([8]; Homo sapiens, HCT-116): 3.5 µM | PARP cleavage ([10]; 5 μM): evident | PARP cleavage ([11]; 5 μM): evident | IC50 ([13]; Homo sapiens, HCT-116, HCT116 p53^+/+ parental): 3.2 µM | IC50 ([14]; Homo sapiens, HCT-116): 3.1 µM | IC50 (72 h) in parental p53^+/+ and p53^−/− cells compared [14, 21]: almost identical

O=c1[nH]cc(F)c(=O)[nH]1 [5-FU]
IC50 [1]: 3.6 µM | improvement of disease-free survival [18]: 35% | improvement of overall survival [18]: 22% | cell cycle distribution ([2]; 1 μM): S-phase arrest and evidence of polyploidy | cell cycle distribution ([2]; 5 μM and 10 μM): arrested in G2/M-phase | sub-G0/G1 content ([2]; 5 μM and 10 μM, ~4% in control samples): 30-35% | increase in IC50 (72 hr) compared to parental cells [3]: 3.0 fold | IC50 [3]: 12.7 µM | cell cycle distribution ([15]; 1 μM, 72 hours): no change in cell cycle profile | cell cycle distribution ([15]; 5 μM and 10 μM, 72 hours): majority of cells had arrested at the G1/S boundary | induction of apoptosis compared to parental cells ([15]; 5 μM and 10 μM, 72 hours): significantly reduced | increase in IC50 (72 hr) compared to parental cells [4]: ~2 fold | IC50 [4]: 47 µM | IC50 [5]: 4.2 µM | cell cycle distribution ([6]; 1 μM): arrested in S-phase | cell cycle distribution ([6]; 5 μM and 10 μM): majority of p53^−/− parental cells had DNA content >4N | drug-induced apoptosis in p53^−/− compared to p53^+/+ parental cells [6]: significantly less apoptosis | cross-resistance examined using cell cycle analyses ([17]; p53^−/− CPT-11-resistant cell line, data not shown): no evidence of cross-resistance | increase in IC50 (72 hr) compared to parental cells ([7]; p53^−/− 5-FU-resistant vs p53^−/− parental): 9.0 fold | IC50 [7]: 178 µM | IC50 [8]: 22 µM | cell cycle distribution [19]: no change in cell cycle profile | PARP cleavage ([10]; 5 μM): observed | PARP cleavage ([11]; 5 μM): not | IC50 ([13]; HCT116 p53^+/+ parental): 4.3 µM | IC50 [14]: 19.7 µM | increase in IC50 (72 h) dose in p53^−/− compared to p53^+/+ cells [14, 21]: 4.6 fold | response rates [20]: 10 to 15%
